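Test compounds were applied to cells in 96-well plates for 48 hours at 5 doses. The concentration for full growth arrest is given as TGI.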
Experiments:
Experiment in all cases: NCI anticancer screen, dose series, 48 h
LOX IMVI melanoma = test system: LOX IMVI melanoma
KM12 colon = test system: KM12 colon
UACC-257 melanoma = test system: UACC-257 melanoma
RPMI-8226 leukemia = test system: RPMI-8226 leukemia
DU-145 prostate = test system: DU-145 prostate
SK-OV-3 ovarian = test system: SK-OV-3 ovarian
A549 NSCLC = test system: A549 NSCLC
SK-MEL-28 melanoma = test system: SK-MEL-28 melanoma
MDA-N = test system: MDA-N
CAKI-1 renal = test system: CAKI-1 renal
SW-620 colon = test system: SW-620 colon
HCT-15 colon = test system: HCT-15 colon
BT-549 breast = test system: BT-549 breast

Structure (SMILES) | TGI (LOX IMVI melanoma) | TGI (KM12 colon) | TGI (UACC-257 melanoma) | TGI (RPMI-8226 leukemia) | TGI (DU-145 prostate) | TGI (SK-OV-3 ovarian) | TGI (A549 NSCLC) | TGI (SK-MEL-28 melanoma) | TGI (MDA-N) | TGI (CAKI-1 renal) | TGI (SW-620 colon) | TGI (HCT-15 colon) | TGI (BT-549 breast)
COCN1C(=N)C(C(=O)OC(C)(C)C)=C2C=C(O)C=CC21C (stereo not drawn) | 26.5 µM | 30.5 µM | 22.5 µM | > 100 µM | 24.2 µM | 84 µM | 34.9 µM | 36.3 µM | 31.9 µM | 28.5 µM | 17.5 µM | 27.5 µM | 12.8 µM
CC(=O)Nn1cnc(C(=N)C#N)c1N | > 100 µM | > 100 µM | > 100 µM | > 100 µM | > 100 µM | > 100 µM | > 100 µM | > 100 µM | > 100 µM | > 100 µM | > 100 µM | > 100 µM | > 100 µM
O=C(Nc1ccccc1)c1cc(S(=O)(=O)N2CCNC2=O)c(S)cc1Cl | > 100 µM | > 100 µM | > 100 µM | > 100 µM | > 100 µM | > 100 µM | > 100 µM | > 100 µM | > 100 µM | > 100 µM | > 100 µM | > 100 µM | > 100 µM
COc1ccc(N/N=C/C2=CC(C)(C)C(C#N)(C#N)C(O)=C2C#N)cc1 | > 100 µM | > 100 µM | > 100 µM | > 100 µM | > 100 µM |  | > 100 µM | > 100 µM | > 100 µM | > 100 µM | > 100 µM | > 100 µM | 
N#CC1(C#N)[C@@H]2CCC=C(Sc3ccccc3)[C@@H]21 | 36.8 µM | 28.5 µM | 42.4 µM | > 100 µM | 30.4 µM | 39.6 µM | 52.8 µM | 28.9 µM | 34.1 µM | 27.2 µM | 26 µM | 51.1 µM | 44.4 µM
COc1ccc2c(=O)c3c([nH]c2c1)OCC3=O | > 100 µM | > 100 µM | > 100 µM | > 100 µM | > 100 µM | > 100 µM |  | > 100 µM |  | > 100 µM | > 100 µM | > 100 µM | > 100 µM
O=C(O)c1ccccc1/C=C1/Cc2ccc3c(c2C1=O)CCC3 | 39.5 µM | > 100 µM | > 100 µM | 57.4 µM | > 100 µM |  | > 100 µM | > 100 µM | > 100 µM | > 100 µM | > 100 µM | > 100 µM | 96.8 µM
COc1ccc(/C=C2/SC(=Nc3ccccc3)N(NC(=O)Cc3ccccc3)C2=O)c(OC)c1 |  | > 100 µM | > 100 µM | > 100 µM | > 100 µM | > 100 µM | > 100 µM | > 100 µM | > 100 µM |  | > 100 µM | > 100 µM | 
O=S1(=O)c2ccccc2N2C(c3ccccc3)=NOC2(c2ccccc2)CC1c1ccc(Br)cc1 (stereo not drawn) | > 100 µM | > 100 µM | > 100 µM |  | > 100 µM | > 100 µM | > 100 µM | > 100 µM | > 100 µM |  | > 100 µM | > 100 µM | > 100 µM
Cc1ccc2nc(CN(CCO)CCO)cc(=O)n2c1 | > 100 µM | > 100 µM | > 100 µM |  | > 100 µM | > 100 µM | > 100 µM | > 100 µM | > 100 µM | > 100 µM | > 100 µM | > 100 µM | > 100 µM
CN(/N=C/c1ccc(Cl)c(Cl)c1)C1=NCCCCN1 | 27.2 µM | 47.5 µM | 50.8 µM | 64 µM | > 100 µM | > 100 µM | > 100 µM |  | 42.2 µM | 82.7 µM | 38 µM | 81.6 µM | > 100 µM
CCOC(=O)/C(=C\c1cn(C(C)=O)c2ccccc12)P(C)(=O)OCC (stereo not drawn) |  | > 100 µM |  | > 100 µM | > 100 µM | 66.1 µM | > 100 µM | > 100 µM | > 100 µM | > 100 µM | > 100 µM | > 100 µM | 61.3 µM
CNC(=O)N1CN(c2ccccc2)C2(CCN(Cc3ccccc3)CC2)C1=O | > 100 µM | > 100 µM | > 100 µM | > 100 µM | > 100 µM | > 100 µM | > 100 µM | > 100 µM | > 100 µM | > 100 µM | > 100 µM | > 100 µM | 
Cc1ccc(N=C2OP(=O)(Nc3ccc(C)cc3)Oc3ccccc32)cc1 (stereo not drawn) | > 100 µM | > 100 µM | > 100 µM |  | > 100 µM | > 100 µM | > 100 µM | > 100 µM | > 100 µM | > 100 µM | > 100 µM | > 100 µM | > 100 µM
NNC(=O)CC(=O)Nc1ccc(S(=O)(=O)c2ccc(NC(=O)CC(=O)NN)cc2)cc1 |  | > 100 µM | > 100 µM | > 100 µM | > 100 µM | > 100 µM | > 100 µM | > 100 µM |  | > 100 µM | > 100 µM | > 100 µM | > 100 µM
O=C1CCCCCCCCCCC1CN1CCOCC1 (stereo not drawn) |  | > 100 µM | > 100 µM | > 100 µM | > 100 µM | > 100 µM | > 100 µM | > 100 µM | > 100 µM |  | > 100 µM | > 100 µM | > 100 µM
CCCCc1nc(C)oc1C(C)C | > 100 µM | > 100 µM | > 100 µM |  | > 100 µM | > 100 µM | > 100 µM | > 100 µM | > 100 µM | > 100 µM | > 100 µM | > 100 µM | > 100 µM
CN(C)/C=C/c1c2c(nc3ccccc13)C(=O)c1cccnc1C2=O |  | 1.56 µM | 1.8 µM | 6.27 µM | 1.47 µM | 1.16 µM | 2.59 µM | 1.84 µM | 1.92 µM | > 38.7 µM | 1.48 µM | 1.07 µM | 1.6 µM
N#Cc1sc2c(c1OC(=O)c1ccc(Cl)cc1Cl)c(=O)n(-c1ccccc1)c(=S)n2-c1ccccc1 | 39.8 µM | 89.7 µM | > 100 µM | 60 µM | > 100 µM | > 100 µM | > 100 µM | > 100 µM |  | 54.5 µM | 72.7 µM | 59.5 µM | 
